Assay results: patent US8633183B2 (priority 2010, dated 2014)

Target: PI3Kalpha (Homo sapiens (Human), UniProt P42336)
Details: read-out: IC50 PI3K
Description: Plot the concentration of each compound versus the emission ratio. […] Determination of IC50 values can be obtained by curve fitting (sigmoidal dose response, variable slope) using Prism software from GraphPad).
Method Type: Filter-Binding-Assay
Compounds are serially diluted in assay buffer+6% DMSO and 10 μl of each dilution is added per well of a 96-well plate (compounds are tested in duplicates) and mixed with 30 μl of the lipid vesicles containing PDGFR-Peptide (0.5 μM final) and PI3K alpha (25 ng/well final). The mixture is then incubated for 20 minutes at room temperature. Subsequently, 20 μl of assay buffer containing 3 μM cold ATP and 0.5 μCi/20 μl 33P-ATP are added. The plates are then incubated at room temperature for 120 minutes (shaking with 300 rpm). The reaction mix is transferred onto filter plates using “filtermate harvester” from Packard: filter plates are rinsed with PBS, then the reaction mix is filtered onto the filter plate, washed 5 times with PBS and are allowed to dry for 30-60 minutes at 50° C.
As positive control serve wells containing vehicle controls (1% DMSO in assay buffer), showing non-inhibited kinase activity (high values). Wells containing assay buffer instead of enzyme can serve as control for background activity (low values).
Calculate IC50 values using the Smiley program (based on GrapPad Prism)

Chain of PI3Kalpha (P42336 whole entry, looked up): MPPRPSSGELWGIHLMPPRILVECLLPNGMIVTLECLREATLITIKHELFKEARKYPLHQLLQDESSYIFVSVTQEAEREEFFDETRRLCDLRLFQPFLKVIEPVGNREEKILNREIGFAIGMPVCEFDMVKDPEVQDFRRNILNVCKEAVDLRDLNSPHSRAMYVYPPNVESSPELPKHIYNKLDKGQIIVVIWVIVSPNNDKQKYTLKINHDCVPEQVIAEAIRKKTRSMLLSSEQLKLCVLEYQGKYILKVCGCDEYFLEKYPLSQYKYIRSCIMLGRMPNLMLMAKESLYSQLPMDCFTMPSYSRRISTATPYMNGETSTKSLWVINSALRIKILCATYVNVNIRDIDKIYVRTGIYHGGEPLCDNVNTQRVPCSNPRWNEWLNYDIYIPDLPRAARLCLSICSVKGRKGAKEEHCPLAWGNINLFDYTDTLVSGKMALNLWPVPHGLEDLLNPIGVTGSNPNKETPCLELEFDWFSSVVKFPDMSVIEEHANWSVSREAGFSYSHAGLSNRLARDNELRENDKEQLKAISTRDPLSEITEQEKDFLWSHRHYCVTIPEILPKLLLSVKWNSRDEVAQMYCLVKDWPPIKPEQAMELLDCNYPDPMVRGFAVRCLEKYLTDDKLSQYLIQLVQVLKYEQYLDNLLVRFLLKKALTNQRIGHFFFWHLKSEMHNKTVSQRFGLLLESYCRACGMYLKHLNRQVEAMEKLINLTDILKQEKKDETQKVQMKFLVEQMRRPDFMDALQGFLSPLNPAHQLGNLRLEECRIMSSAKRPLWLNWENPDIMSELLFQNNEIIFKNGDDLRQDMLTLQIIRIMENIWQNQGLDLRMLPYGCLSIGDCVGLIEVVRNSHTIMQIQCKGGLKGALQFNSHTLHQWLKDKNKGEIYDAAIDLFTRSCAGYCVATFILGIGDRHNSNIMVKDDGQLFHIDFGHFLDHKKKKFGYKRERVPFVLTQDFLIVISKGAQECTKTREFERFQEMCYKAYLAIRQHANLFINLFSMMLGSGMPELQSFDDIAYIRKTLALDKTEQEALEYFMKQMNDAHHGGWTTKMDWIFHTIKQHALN

Molecule `CCc1ncnc(-c2ccc(C(=O)NC3CCCN(C)C3)c(F)c2)c1C#Cc1ccc(N)nc1` [Example D-197] has an IC50 of 280 nM.
With `CCc1ncnc(-c2ccc(C(=O)N3CCC(N4CCN(C)CC4)CC3)c(F)c2)c1C#Cc1ccc(N)nc1` [Example D-62] the IC50 was 205 nM.
Molecule `CCc1ncnc(-c2cc(F)c(C(=O)N(C)C3CCN(C)CC3)c(F)c2)c1C#Cc1ccc(N)nc1` [Example E-176] has an IC50 of 491 nM.
With `CCc1ncnc(-c2ccc(C(=O)N3CC[C@H](N(C)C)C3)c(OC)c2)c1C#Cc1ccc(N)nc1` [Example E-55] the IC50 was 148 nM.
With `CCc1ncnc(-c2ccc(C(=O)N3CCN(C)C[C@H]3C)c(F)c2)c1C#Cc1ccc(N)nc1` [Example E-347] the IC50 was 205 nM.
Molecule `CCc1ncnc(-c2ccc(C(=O)N3CCN(CC4CCCCC4)CC3)c(F)c2)c1C#Cc1ccc(N)nc1C` [Example D-22] has an IC50 of 1270 nM.
Work on `CCc1ncnc(-c2ccc(C(=O)N3CCN(C4CCOCC4)CC3)c(F)c2)c1C#Cc1ccc(N)nc1` [Example D-84] yielded an IC50 of 127 nM.
For `CCc1ncnc(-c2ccc(C(=O)N3CCC[C@H]3CO)c(F)c2)c1C#Cc1ccc(N)nc1` [Example D-135], the IC50 was 136 nM.
`CCc1ncnc(-c2ccc(N(C)C)nc2)c1C#Cc1ccc(N)nc1` [Example C-34] was tested, and the IC50 was 37 nM.
In the case of `CCc1ncnc(-c2cc(F)c(C(=O)N3CCCC3)c(F)c2)c1C#Cc1ccc(N)nc1` [Example E-11], the IC50 is reported as 125 nM.
For `CCc1ncnc(-c2ccc(C(=O)N3CCC(O)(CN(C)C)CC3)c(F)c2)c1C#Cc1ccc(N)nc1` [Example D-103], the IC50 was 470 nM.
For `CCc1ncnc(-c2cc(F)c(C(=O)N3CCN(C4CCOCC4)CC3)c(F)c2)c1C#Cc1ccc(N)nc1` [Example E-6], the IC50 was 124 nM.
`CCc1ncnc(-c2ccc(C(=O)N3CCN(c4ccncc4)CC3)c(F)c2)c1C#Cc1ccc(N)nc1` [Example D-93] was tested, and the IC50 was 266 nM.
`CCc1ncnc(-c2ccc(Cl)c(C(=O)NC)c2)c1C#Cc1ccc(N)nc1` [Example C-49] was tested, and the IC50 was 67 nM.
For `CCc1ncnc(-c2ccc(C(=O)NC3CC(N4CCCCC4)C3)c(F)c2)c1C#Cc1ccc(N)nc1` [Example D-207], the IC50 was 436 nM.
In the case of `CCc1ncnc(-c2ccc(C(=O)N3CCN(CC)CC3)c(OC)c2)c1C#Cc1ccc(N)nc1` [Example D-53], the IC50 is reported as 213 nM.
`CCc1ncnc(-c2cc(F)c(C(=O)N3CCn4cnnc4C3)c(Cl)c2)c1C#Cc1ccc(N)nc1` [Example E-156] gave an IC50 of 18.3 nM.
`CCc1ncnc(-c2ccc(C(=O)N3CCC[C@@H]3CO)c(F)c2)c1C#Cc1ccc(N)nc1` [Example D-131] showed an IC50 of 119 nM.
In the case of `CCc1ncnc(-c2cc(F)c(C(=O)N3CCN(C)CC3)c(Cl)c2)c1C#Cc1ccc(N)nc1` [Example E-233], the IC50 is reported as 89.8 nM.
In the case of `CCc1ncnc(-c2ccc(C(=O)N3CCN(C4CCOCC4)CC3)c(Cl)c2)c1C#Cc1ccc(NC)nc1` [Example E-186], the IC50 is reported as 325 nM.
Molecule `CCc1ncnc(-c2cc(F)c(C(=O)N3CCN4CCC[C@H]4C3)c(F)c2)c1C#Cc1ccc(NC)nc1` [Example E-207] has an IC50 of 581 nM.
For `CCc1ncnc(-c2ccc(C(=O)N3CCCN(C)CC3)c(Cl)c2)c1C#Cc1ccc(N)nc1` [Example E-36], the IC50 was 405 nM.
With `CCc1ncnc(-c2ccc(C(=O)N3CCC(O)CC3)c(F)c2)c1C#Cc1ccc(N)nc1` [Example D-71] the IC50 was 85 nM.
`CCc1ncnc(-c2ccc(C(=O)N3CCCC(O)C3)c(F)c2)c1C#Cc1ccc(N)nc1` [Example D-110] showed an IC50 of 64 nM.
`CCc1ncnc(-c2ccc(C(=O)N3CCN(CC(=O)N(C)C)CC3)c(F)c2)c1C#Cc1ccc(N)nc1` [Example D-85] gave an IC50 of 115 nM.
Work on `CCc1ncnc(-c2ccc(C(=O)N(C)CCN3CCCC3=O)c(OC)c2)c1C#Cc1ccc(N)nc1` [Example E-65] yielded an IC50 of 88 nM.
Work on `CCc1ncnc(-c2ccc(C)nc2)c1C#Cc1ccc(N)nc1` [Example C-31] yielded an IC50 of 30 nM.
With `CCc1ncnc(-c2ccc(C(=O)N3CCC4(CCN(C(=O)OC(C)(C)C)CC4)C3)c(F)c2)c1C#Cc1ccc(N)nc1` [Example E-327] the IC50 was 1360 nM.
In the case of `CCc1ncnc(-c2ccc(C(=O)N3CCC(CN(C)C)CC3)c(F)c2)c1C#Cc1ccc(N)nc1C` [Example E-281], the IC50 is reported as 679 nM.
With `CCc1ncnc(-c2ccc(C(=O)N(C)OC)c(Cl)c2)c1C#Cc1ccc(N)nc1` [Example E-79] the IC50 was 50 nM.
With `CCc1ncnc(-c2ccc(C(=O)N3CCN4CCC[C@@H]4C3)c(F)c2)c1C#Cc1ccc(N)nc1` [Example E-140] the IC50 was 198 nM.
`CCc1ncnc(-c2ccc(C(=O)N3CCC(O)(C(F)(F)F)CC3)c(F)c2)c1C#Cc1ccc(N)nc1` [Example D-123] was tested, and the IC50 was 324 nM.
Work on `CCc1ncnc(-c2ccc(C(=O)N3C[C@H]4CN(C(=O)OC(C)(C)C)C[C@H]4C3)c(F)c2)c1C#Cc1ccc(N)nc1` [Example E-329] yielded an IC50 of 238 nM.
Work on `CCc1ncnc(-c2ccc(C(=O)NCC3(C)COC3)c(Cl)c2)c1C#Cc1ccc(N)nc1` [Example D-159] yielded an IC50 of 66 nM.
`CCc1ncnc(-c2ccc(C(=O)NC3CCCN(C)C3)c(Cl)c2)c1C#Cc1ccc(N)nc1` [Example D-140] showed an IC50 of 510 nM.
`CCc1ncnc(-c2ccc(C(=O)N3CCC(C(C)(C)O)CC3)c(OC)c2)c1C#Cc1ccc(N)nc1` [Example E-44] gave an IC50 of 232 nM.
Molecule `CCc1ncnc(-c2ccc(C(=O)N3CCC(N4CCOCC4)CC3)c(Cl)c2)c1C#Cc1ccc(NC)nc1` [Example E-185] has an IC50 of 202 nM.
`Cc1cc(-c2ncnc(C)c2C#Cc2ccc(N)nc2)ccn1` [Example C-20] was tested, and the IC50 was 58 nM.
Work on `CCc1ncnc(-c2cc(Cl)c(C(=O)N3CCN(CC)CC3)c(Cl)c2)c1C#Cc1ccc(N)nc1` [Example E-198] yielded an IC50 of 90.9 nM.
For `CCc1ncnc(-c2ccc(C(=O)N3CCC(F)(F)CC3)c(F)c2)c1C#Cc1ccc(N)nc1` [Example E-166], the IC50 was 154 nM.
Molecule `CCc1ncnc(-c2ccc(C(=O)N3CCNC(=O)C3)c(Cl)c2)c1C#Cc1ccc(N)nc1` [Example D-44] has an IC50 of 27 nM.
For `CCc1ncnc(-c2ccc(C(=O)N3CCC(N4CCN(C)CC4)CC3)c(Cl)c2)c1C#Cc1ccc(NC)nc1` [Example E-192], the IC50 was 334 nM.
`CCc1ncnc(-c2cc(Cl)c(C(=O)N3CCN(C)C(=O)C3)c(Cl)c2)c1C#Cc1ccc(N)nc1` [Example E-195] showed an IC50 of 20.3 nM.
`CCc1ncnc(-c2ccc(C(=O)N3CCN(C)CC3)c(C(F)(F)F)c2)c1C#Cc1ccc(N)nc1` [Example E-229] gave an IC50 of 174 nM.
Work on `CCCCN1CCN(C(=O)c2ccc(-c3ncnc(CC)c3C#Cc3ccc(N)nc3)cc2F)CC1` [Example D-83] yielded an IC50 of 219 nM.
Molecule `CCc1ncnc(-c2ccc(C(=O)N3CCN4CCCCC4C3)c(F)c2)c1C#Cc1ccc(N)nc1` [Example D-87] has an IC50 of 233 nM.
With `CNC(=O)c1ccc(-c2ncnc(C)c2C#Cc2ccc(N)nc2)cc1Cl` [Example C-5] the IC50 was 50 nM.
Molecule `CCc1ncnc(-c2ccc(C(=O)N3CCC(N4CCOCC4)C3)c(F)c2)c1C#Cc1ccc(N)nc1` [Example D-234] has an IC50 of 156 nM.
Molecule `CCc1ncnc(-c2cc(F)c(C(=O)N3CCN(Cc4cc(C)no4)CC3)c(Cl)c2)c1C#Cc1ccc(N)nc1` [Example E-304] has an IC50 of 108 nM.
In the case of `CCc1ncnc(-c2ccc(C(=O)N3CCN(CC4CCCCC4)CC3)c(OC)c2)c1C#Cc1ccc(N)nc1` [Example E-67], the IC50 is reported as 3050 nM.
For `CCc1ncnc(-c2ccc(C(=O)N3CCN(CCOC)CC3)c(OC)c2)c1C#Cc1ccc(N)nc1` [Example D-52], the IC50 was 134 nM.
Work on `CCc1ncnc(-c2ccccc2)c1C#Cc1ccc(N)nc1` [Example C-13] yielded an IC50 of 99 nM.
`CCc1ncnc(-c2ccc(C(=O)N3CCC(O)(c4ccccc4)CC3)c(F)c2)c1C#Cc1ccc(N)nc1` [Example D-126] gave an IC50 of 142 nM.
`CCc1ncnc(-c2ccc(S(C)(=O)=O)cc2)c1C#Cc1ccc(N)nc1` [Example C-14] was tested, and the IC50 was 66 nM.
`CCc1ncnc(-c2cc(F)c(C(=O)N3CCN(CCOC)CC3)c(F)c2)c1C#Cc1ccc(N)nc1` [Example E-5] was tested, and the IC50 was 78.8 nM.
With `Cc1ncnc(-c2ccc(C(F)(F)F)nc2)c1C#Cc1ccc(N)nc1` [Example C-21] the IC50 was 99 nM.
`CCc1ncnc(-c2ccc(C(=O)N3CCC4(CCN(C)CC4)CC3)c(Cl)c2)c1C#Cc1ccc(N)nc1` [Example E-26] was tested, and the IC50 was 498 nM.
`CCc1ncnc(-c2ccc(C(=O)N3CCC(C(C)(C)O)CC3)c(F)c2)c1C#Cc1ccc(NC)nc1` [Example E-177] gave an IC50 of 337 nM.
`CCc1ncnc(-c2ccc(C(=O)NCC3CCN(C)C3)c(F)c2)c1C#Cc1ccc(N)nc1` [Example D-75] was tested, and the IC50 was 335 nM.
`CCc1ncnc(-c2ccc(C(=O)N3CCN(CC(C)O)CC3)c(F)c2)c1C#Cc1ccc(N)nc1` (centres unmarked) [Example E-296] was tested, and the IC50 was 122 nM.
In the case of `CCc1ncnc(-c2ccc(C(=O)N3CCN(CC4CC4)CC3)c(F)c2)c1C#Cc1ccc(N)nc1` [Example D-106], the IC50 is reported as 249 nM.
Molecule `CCc1ncnc(-c2ccc(Cl)c(C(=O)N(CC)CC)c2)c1C#Cc1ccc(N)nc1` [Example C-47] has an IC50 of 541 nM.
`CCc1ncnc(-c2ccc(C(=O)N3CCN(C4CCCC4O)CC3)c(F)c2)c1C#Cc1ccc(N)nc1` (centres unmarked) [Example E-294] showed an IC50 of 137 nM.
For `C#CCN1CCN(C(=O)c2ccc(-c3ncnc(CC)c3C#Cc3ccc(N)nc3)cc2F)CC1` [Example E-165], the IC50 was 178 nM.
Work on `CCc1ncnc(-c2ccc(C(=O)N3CCN(C4CC4)CC3)c(F)c2)c1C#Cc1ccc(N)nc1` [Example D-121] yielded an IC50 of 127 nM.
In the case of `CCc1ncnc(-c2ccc(C(=O)N3CCn4c(COC)nnc4C3)c(F)c2)c1C#Cc1ccc(N)nc1` [Example E-163], the IC50 is reported as 50.8 nM.
In the case of `CCc1ncnc(-c2ccc(C(=O)N3CCC(N4CCCCCC4)CC3)c(C)c2)c1C#Cc1ccc(N)nc1` [Example E-102], the IC50 is reported as 289 nM.
`CCc1ncnc(-c2cc(F)c(C(=O)N3CCN(C4CCOCC4)CC3)c(F)c2)c1C#Cc1ccc(NC)nc1` [Example E-216] showed an IC50 of 466 nM.
`CCc1ncnc(-c2ccc(C(=O)N3CCNCC3)c(C)c2)c1C#Cc1ccc(N)nc1` [Example E-127] showed an IC50 of 158 nM.
For `CCc1ncnc(-c2ccc(C(=O)N3CCN(c4ccncc4)CC3)c(C)c2)c1C#Cc1ccc(N)nc1` [Example E-131], the IC50 was 158 nM.
`CCc1ncnc(-c2ccc(C(=O)N3CCN(CC)CC3)c(C(F)(F)F)c2)c1C#Cc1ccc(N)nc1` [Example E-231] gave an IC50 of 185 nM.
`CCc1ncnc(-c2cc(Cl)c(C(=O)N3CCN(CC(C)(C)O)CC3)c(Cl)c2)c1C#Cc1ccc(N)nc1` [Example E-199] showed an IC50 of 74.6 nM.
`CCc1ncnc(-c2ccc(C(=O)N3CCC(N4CCN(C)CC4)CC3)c(OC)c2)c1C#Cc1ccc(N)nc1` [Example E-45] was tested, and the IC50 was 96.9 nM.
Work on `CCc1ncnc(-c2cc(Cl)c(C(=O)N3CC[C@@H](N(C)C)C3)c(Cl)c2)c1C#Cc1ccc(N)nc1` [Example E-196] yielded an IC50 of 235 nM.
